Results: patent US6479554B2, “Immunotherapeutic agents” (Celgene Corporation, priority 1996, dated 2002)

First: COc1cc(OC)cc(C(=CC#N)c2ccc(OC)c(OC)c2)c1 [Example 10, 3-(3,4-Dimethoxyphenyl)-3-(3′,5′-dimethoxyphenyl)-acrylonitrile]
Second: CCc1ccc(C(=CC#N)c2ccc(OC)c(OC)c2)cc1CC [Example 26, 3-(3,4-Diethylphenyl)-3-(3,4-dimethoxyphenyl)acrylonitrile]
The melting point of the first is higher: 88 to 90 °C for the first, 78 to 82 °C for the second.

First: COc1ccc(C(=CC#N)c2ccncc2)cc1OC [Example 22, 3-(3,4-Dimethoxyphenyl)-3-pyridin-4-ylacrylonitrile]
Second: COc1ccc(C(=CC#N)c2ccc(C)cc2)cc1OC [Example 17, 3-(3,4-Dimethoxyphenyl)-3-(4-methylphenyl)acrylonitrile]
The melting point of the first is higher: 116 to 125 °C for the first, 83.5 to 86.5 °C for the second.

`COc1ccc(C(=CC#N)c2cccc([N+](=O)[O-])c2)cc1OC` [Example 11, 3-(3,4-Dimethoxyphenyl)-3-(3′-nitrophenyl)acrylonitrile] and `COc1ccc(C(=CC#N)c2ccc([N+](=O)[O-])cc2)cc1OC` [Example 14, 3-(3,4-Dimethoxyphenyl)-3-(4-nitrophenyl)acrylonitrile] fall in the same range of melting point: 117.5 to 120 °C for the first, 117.5 to 120 °C for the second.

First: CC=C(c1ccccc1)c1ccc(OC)c(OC)c1 [Example 5, 1-(3,4-Dimethoxyphenyl)-1-phenylprop-1-ene]
Second: CCOc1cc(C(=CC#N)c2ccccc2)ccc1OC [Example 8, 3-(3-Ethoxy-4-methoxyphenyl)-3-phenylacrylonitrile]
The melting point of the first is lower: 72 to 73 °C for the first, 74 to 77 °C for the second.

Compared with `COc1ccc(C(=CC#N)c2ccco2)cc1OC` [Example 24, 3-(3,4-Dimethoxyphenyl)-3-(2-furyl)acrylonitrile], `COc1ccc(C(=CC#N)c2ccccn2)cc1OC` [Example 23, 3-(3,4-Dimethoxyphenyl)-3-pyridin-2-ylacrylonitrile] is higher in melting point: 78 to 82 °C for the first, 134.5 to 135.5 °C for the second.

Compared with `COc1ccc(C(=CC#N)c2ccc3ccccc3c2)cc1OC` [Example 20, 3-(3,4-Dimethoxyphenyl)-3-naphth-2-ylacrylonitrile], `COc1ccc(C(=CC#N)c2ccc(-c3ccccc3)cc2)cc1OC` [Example 18, 3-(4-Biphenylyl)-3-(3,4-dimethoxyphenyl)acrylonitrile] is higher in melting point: 121 to 123 °C for the first, 132 to 134 °C for the second.

First: CC=C(c1ccc(OC)c(OC)c1)c1ccc(OC)c(OCC)c1 [Example 6, 1-(3,4-Dimethoxyphenyl)-1-(3-ethoxy-4-methoxyphenyl)prop-1-ene]
Second: COc1ccc(C(=O)c2c(OC)cccc2OC)cc1OC [Example 30, 2′,6′,3,4-Tetramethoxybenzophenone]
The melting point of the first is lower: 65.5 to 68 °C for the first, 128 to 129 °C for the second.

Compared with `COc1ccc(C(=O)c2ccc(N)cc2)cc1OC` [Example 16, 3,4-Dimethoxy-4′-aminobenzophenone], `COc1ccc(C(=O)c2cccc(N)c2)cc1OC` [Example 13, 3,4-Dimethoxy-3′-aminobenzophenone] is lower in melting point: 189 to 191 °C for the first, 157 to 175 °C for the second.

First: COc1ccc(C(=CC#N)c2ccc(F)cc2)cc1OC [Example 19, 3-(3,4-Dimethoxyphenyl)-3-(4′-fluorophenyl)acrylonitrile]
Second: COc1ccc(C(=CC#N)c2ccc3c(c2)OCO3)cc1OC [Example 21, 3-(3,4-Dimethoxyphenyl)-3-(3,4-methylenedioxyphenyl)acrylonitrile]
The melting point of the first is lower: 100 to 102 °C for the first, 121 to 123 °C for the second.
